Each structure is given as a SMILES string.

The nature of data set [1]: Stability in buffer at pH 7.4 (HPLC). The class given is physicochemical. The note with it: buffer pH 7.4, 37° C. On the procedure:
0.3 mg of the test compound are solved in 0.1 ml dimethylsulfoxide and 0.4 ml acetonitrile. For complete dissolution the HPLC vial with the sample solution is sonified for about 20 seconds. Then 1.0 ml of the buffer solution is added, and the sample is again treated in the ultrasonic bath.
90 g of sodium chloride, 13.61 g of potassium dihydrogen phosphate and 83.35 g of 1 M sodium hydroxide solution are made up to 1 liter with Millipore water and then diluted 1:10.
10 μl portions of the sample solution are analysed by HPLC to determine the amount of the test compound over a period of 24 hours at 37° C. The peak areas in percentage are used for quantification.
Agilent 1100 with DAD (G1315B), binary pump (G1312A), autosampler (G1329A), column oven (G1316A), thermostat (G1330B); column: Kromasil 100 C18, 250 mm×4 mm, 5 μm; column temperature: 37° C.; eluent A: water+5 ml of perchloric acid/liter, eluent B: acetonitrile.
The ratio of the peak areas (F) at different time points in relation to the peak areas at the starting time are shown in Table 2 for representative examples: […]

Data set [2] in a line: In vitro stability in rat plasma (HPLC detection). Type of data set: in vitro ADME. The conditions noted are these: 37° C. On the procedure:
1 mg of test compound is dissolved in 1.25 ml dimethylsulfoxide. Then 1.25 ml water are added. 0.5 ml of this sample solution are mixed with 0.5 ml heparinized and 37° C. warm plasma (wistar rat plasma or human plasma). A first sample (10 μl) is immediately taken for HPLC analysis. In the period up to 4 h after the start of incubation further 10 μl aliquots are taken after 30, 60, 90, 120 and 240 minutes and the amount of the test compound is determined.
Agilent 1100 with DAD (G1315A), binary pump (G1312A), autosampler (G1329A), column oven (G1316A), thermostat (G1330B); column: Kromasil 100 C18, 250 mm×4 mm, 5 μm; column temperature: 45° C.; eluent A: water+5 ml of perchloric acid/liter, eluent B: acetonitrile.

Turning to `COc1cc(S(C)(=O)=O)ccc1N(C(=O)OC(C)OC(=O)[C@@H](NC(=O)[C@@H](N)CCCCN)C(C)C)c1nc2ccc(-c3ccc(NC(=O)[C@H](C)c4ccc(F)cc4)cc3)cn2n1.Cl.Cl` (mixture of isomers) [Example 2.2, (1RS)-1-({[6-(4-{[(2R)-2-(4-fluorophenyl)propanoyl]amino}phenyl)[1,2,4]triazolo[1,5-α]pyridin-2-yl][2-methoxy-4-(methylsulfonyl)phenyl]carbamoyl}oxy)ethyl L-lysyl-L-valinate dihydrochloride], the “% Test Compound after 24 h [F(t = 24 h) × 100/F(t = 0 h)]” value (from here on “% Test Compound after 24 h”) in data set [1] turned out to be 0.0%. The “% Test Compound after 4 h [F(t = 24 h) × 100/F(t = 0 h)]” value (“% Test Compound after 4 h” for short) in data set [2] worked out at 5%.

Turning to `COc1cc(S(C)(=O)=O)ccc1N(C(=O)OC(C)OC(=O)[C@@H](NC(=O)[C@@H](N)C(C)C)C(C)C)c1nc2ccc(-c3ccc(NC(=O)[C@H](C)c4ccc(F)cc4)cc3)cn2n1.Cl` (mixture of isomers) [Example 2.4, (1RS)-1-({[6-(4-{[(2R)-2-(4-fluorophenyl)propanoyl]amino}phenyl)[1,2,4]triazolo[1,5-α]pyridin-2-yl][2-methoxy-4-(methylsulfonyl)phenyl]carbamoyl}oxy)ethyl L-valyl-L-valinate hydrochloride], the “% Test Compound after 24 h” value in data set [1] amounted to 48%. The “% Test Compound after 4 h” value in data set [2] is given as 45%.

With `COc1cc(S(C)(=O)=O)ccc1N(C(=O)OC(C)OC(=O)[C@@H](N)C(C)C)c1nc2ccc(-c3ccc(NC(=O)[C@H](C)c4ccc(F)cc4)cc3)cn2n1.Cl` (mixture of isomers) [Example 3.1, (1RS)-1-({[6-(4-{[(2R)-2-(4-fluorophenyl)propanoyl]amino}phenyl)[1,2,4]triazolo[1,5-α]pyridin-2-yl][2-methoxy-4-(methylsulfonyl)phenyl]carbamoyl}oxy)ethyl L-valinate hydrochloride], the “% Test Compound after 24 h” value in data set [1] is reported as 0.0%. The “% Test Compound after 4 h” value in data set [2] stood at 0.0%.

`COc1cc(S(C)(=O)=O)ccc1N(C(=O)OC(C)OC(=O)[C@@H](N)C(C)(C)C)c1nc2ccc(-c3ccc(NC(=O)[C@H](C)c4ccc(F)cc4)cc3)cn2n1.Cl` (mixture of isomers) [Example 3.2, (1RS)-1-({[6-(4-{[(2R)-2-(4-fluorophenyl)propanoyl]amino}phenyl)[1,2,4]triazolo[1,5-α]pyridin-2-yl][2-methoxy-4-(methylsulfonyl)phenyl]carbamoyl}oxy)ethyl 3-methyl-L-valinate hydrochloride]: the “% Test Compound after 24 h” value in data set [1] stood at 0.0%. Moreover, the “% Test Compound after 4 h” value in data set [2] stood at 0.0%. On to `CC[C@H](C)[C@H](N)C(=O)OC(C)OC(=O)N(c1nc2ccc(-c3ccc(NC(=O)[C@H](C)c4ccc(F)cc4)cc3)cn2n1)c1ccc(S(C)(=O)=O)cc1OC.Cl` (mixture of isomers) [Example 3.5, (1RS)-1-({[6-(4-{[(2R)-2-(4-fluorophenyl)propanoyl]amino}phenyl)[1,2,4]triazolo[1,5-α]pyridin-2-yl][2-methoxy-4-(methylsulfonyl)phenyl]carbamoyl}oxy)ethyl-L-isoleucinate hydrochloride], for which, in data set [2], the “% Test Compound after 4 h” value came to 19%. As for `COc1cc(S(C)(=O)=O)ccc1N(C(=O)OC(OC(=O)[C@@H](N)C(C)(C)C)C(C)C)c1nc2ccc(-c3ccc(NC(=O)[C@H](C)c4ccc(F)cc4)cc3)cn2n1.Cl` (mixture of isomers) [Example 5.1, (1RS)-1-({[6-(4-{[(2R)-2-(4-fluorophenyl)propanoyl]amino}phenyl)[1,2,4]triazolo[1,5-α]pyridin-2-yl][2-methoxy-4-(methylsulfonyl)phenyl]carbamoyl}oxy)-2-methylpropyl 3-methyl-L-valinate hydrochloride], the “% Test Compound after 24 h” value in data set [1] came to 21%. The “% Test Compound after 4 h” value in data set [2] is given as 19%. On to `COc1cc(S(C)(=O)=O)ccc1N(C(=O)OC(OC(=O)[C@@H](N)C(C)C)C(C)C)c1nc2ccc(-c3ccc(NC(=O)[C@H](C)c4ccc(F)cc4)cc3)cn2n1.Cl` (mixture of isomers) [Example 5.4, (1RS)-1-({[6-(4-{[(2R)-2-(4-fluorophenyl)propanoyl]amino}phenyl)[1,2,4]triazolo[1,5-α]pyridin-2-yl][2-methoxy-4-(methylsulfonyl)phenyl]carbamoyl}oxy)-2-methylpropyl-L-valinate hydrochloride], for which, in data set [1], the “% Test Compound after 24 h” value turned out to be 17%. The “% Test Compound after 4 h” value in data set [2] stood at 44%. For `COc1cc(S(C)(=O)=O)ccc1N(C(=O)OC(OC(=O)C(C)(C)N)C(C)C)c1nc2ccc(-c3ccc(NC(=O)[C@H](C)c4ccc(F)cc4)cc3)cn2n1.Cl` (mixture of isomers) [Example 5.5, (1RS)-1-({[6-(4-{[(2R)-2-(4-fluorophenyl)propanoyl]amino}phenyl)[1,2,4]triazolo[1,5-α]pyridin-2-yl][2-methoxy-4-(methylsulfonyl)phenyl]carbamoyl}oxy)-2-methylpropyl-2-methylalaninate hydrochloride], the “% Test Compound after 4 h” value in data set [2] turned out to be 33%. For the compound `CC[C@H](C)[C@H](N)C(=O)OC(C)OC(=O)N(c1nc2n(n1)CC(c1ccc(NC(=O)[C@H](C)c3ccc(F)cc3)cc1)C=C2)c1ccc(S(C)(=O)=O)cc1OC.Cl` (single isomer, unassigned) [Example 3.6, (1S or 1R)-1-({[6-(4-{[(2R)-2-(4-fluorophenyl)propanoyl]amino}phenyl)[1,2,4]triazolo[1,5-α]pyridin-2-yl][2-methoxy-4-(methylsulfonyl)phenyl]carbamoyl}oxy)ethyl-isoleucinate hydrochloride], in data set [1], the “% Test Compound after 24 h” value was 0.0%. The same measure, in the same setting: under `CC[C@H](C)[C@H](N)C(=O)OC(C)OC(=O)N(c1nc2ccc(-c3ccc(NC(=O)[C@H](C)c4ccc(F)cc4)cc3)cn2n1)c1ccc(S(C)(=O)=O)cc1OC.Cl` (single isomer, unassigned) [Example 3.7, (1R or 1S)-1-({[6-(4-{[(2R)-2-(4-fluorophenyl)propanoyl]amino}phenyl)[1,2,4]triazolo[1,5-α]pyridin-2-yl][2-methoxy-4-(methylsulfonyl)phenyl]carbamoyl}oxy)ethyl-L-isoleucinate hydrochloride] stands 0.0%.

As to `COc1cc(S(C)(=O)=O)ccc1N(C(=O)OCOC(=O)C1CCNCC1)c1nc2ccc(-c3ccc(NC(=O)[C@H](C)c4ccc(F)cc4)cc3)cn2n1.O=C(O)C(F)(F)F` [Example 1.1, ({[6-(4-{[(2R)-2-(4-fluorophenyl)propanoyl]amino}phenyl)[1,2,4]triazolo[1,5-α]pyridin-2-yl][2-methoxy-4-(methylsulfonyl)phenyl]carbamoyl}oxy)methyl piperidine-4-carboxylate trifluoroacetate], the “% Test Compound after 24 h” value in data set [1] (measured for formic acid salt) is listed as 35.0 *) %. `COc1cc(S(C)(=O)=O)ccc1N(C(=O)OCOC(=O)[C@@H](N)CC(C)C)c1nc2ccc(-c3ccc(NC(=O)[C@H](C)c4ccc(F)cc4)cc3)cn2n1.Cl` [Example 1.3, ({[6-(4-{[(2R)-2-(4-fluorophenyl)propanoyl]amino}phenyl)[1,2,4]triazolo[1,5-α]pyridin-2-yl][2-methoxy-4-(methylsulfonyl)phenyl]carbamoyl}oxy)methyl L-leucinate hydrochloride]: the “% Test Compound after 4 h” value in data set [2] is 0.0%. With `COc1cc(S(C)(=O)=O)ccc1N(C(=O)OCOP(=O)(O)O)c1nc2ccc(-c3ccc(NC(=O)[C@H](C)c4ccc(F)cc4)cc3)cn2n1` [Example 1.6, (phosphonooxy)methyl [6-(4-{[(2R)-2-(4-fluorophenyl)propanoyl]amino}phenyl)[1,2,4]triazolo[1,5-α]pyridin-2-yl][2-methoxy-4-(methylsulfonyl)phenyl]carbamate], the “% Test Compound after 4 h” value in data set [2] came out at 0.0%. Still for that read-out and setting: next, `CC(C)[C@H](N)C(=O)OCOC(=O)N(c1nc2ccc(-c3ccc(NC(=O)[C@H](C)c4ccc(F)cc4)cc3)cn2n1)c1ccc(S(C)(=O)=O)cc1OCC(F)(F)F.Cl` [Example 6.2, ({[6-(4-{[(2R)-2-(4-fluorophenyl)propanoyl]amino}phenyl)[1,2,4]triazolo[1,5-α]pyridin-2-yl][4-(methylsulfonyl)-2-(2,2,2-trifluoroethoxy)phenyl]carbamoyl}oxy)methyl L-valinate hydrochloride]: 6%; `CNCC(=O)N(c1nc2ccc(-c3ccc(NC(=O)[C@H](C)c4ccc(F)cc4)cc3)cn2n1)c1ccc(S(C)(=O)=O)cc1OC.O=C(O)C(F)(F)F` [Example 8.1, (2R)-2-(4-fluorophenyl)-N-[4-(2-{[2-methoxy-4-(methylsulfonyl)phenyl](N-methylglycyl)amino}[1,2,4]triazolo[1,5-α]pyridin-6-yl)phenyl]propanamide trifluoroacetate]: 57%.

These data come from patent US9586958B2, “Prodrug derivatives of substituted triazolopyridines” (BAYER PHARMA AKTIENGESELLSCHAFT, priority 2013, dated 2017).
